Laboratory results from US9512125B2, “Substituted pyrazolo[3.4-D] pyrimidines as anti-inflammatory agents” (THE REGENTS OF THE UNIVERSITY OF CALIFORNIA, priority 2004, dated 2016).

Columns and labels:
[1] = test system: HUVEC with or without PBMC (3C, 4H, SAG and LPS systems); assay: BioMAP inflammation model systems (3C, 4H, SAG, LPS), cell-based ELISA profiling; parameters: species or system human; settings: 4 systems (3C, 4H, SAG, LPS); concentration of 5 micromolar; 24 h stimulation
IFN-gamma signaling = assay: Gamma interferon signaling inhibition in cell-based (BioMAP) assay; parameters: species or system human; settings: weakly inhibit T cell and monocyte activation (less than 50%) but inhibit IFN-gamma signaling and collagen production
Description: In another embodiment, the compounds of the invention are the subset of compounds of Formula (I) that are gamma interferon signaling inhibitors. […] Gamma interferon signaling inhibitors may be especially useful in treating the inflammation underlying multiple diseases including rheumatoid arthritis, systemic sclerosis, COPD, asthma, atherosclerosis, cirrhosis, pulmonary fibrosis, sarcoidosis, keloids, and renal fibrosis.
(§1) Human umbilical vein endothelial cells (HUVEC) were cultured as described in Kunkel et al., 2004, FASEB J 18:1279-1281. Peripheral blood mononuclear cells (PBMC) were prepared from buffy coats (Stanford Blood Bank, Stanford, Calif.) by centrifugation over Hisopaque-1077 (Sigma). Four assay systems, 3C, 4H, SAG, and LPS, were used. For the 3C system, HUVEC were cultured for 24 h in microtiter plates (Falcon; BD Biosciences), in the presence of cytokines IL-1β (1 ng/ml), TNF-α (5 ng/ml), and IFN-γ (20 ng/ml). For the 4H system, HUVEC were cultured in the presence of IL-4 (5 ng/ml) and histamine (10 μM). For the SAG system, HUVEC were cultured with PBMC (7.5×10^4) and SAG (20 ng/ml). For the LPS system, HUVEC were cultured with PBMC (7.5×10^4) and LPS (2 ng/ml). Compounds were added 1 h before stimulation and were present during the entire 24-h stimulation period. Cell-based enzyme-linked immunosorbent assay (ELISAs) were carried out as described. (See Kunkel et al., 2004, FASEB J 18:1279-1281.)

T cell activation = T cell activation inhibition in cell-based (BioMAP) assay; parameters: species or system human; settings: strongly inhibit T cell activation: at least one listed gene product inhibited by at least 50% in a cell-based assay
Description: T-cell activation inhibitors may be especially useful in treating the inflammation underlying arthritis, psoriasis, vasculitis, multiple sclerosis, IBD, asthma, atherosclerosis, or other inflammatory disease.
as §1

monocyte activation = assay: Monocyte activation inhibition in cell-based (BioMAP) assay; parameters: species or system human; settings: weakly inhibit T cell activation, strongly inhibit monocyte activation, MCP-1 and IL-8 (at least 50%) in a cell-based assay
Description: as §1

[2] = test system: mouse peritoneal inflammation model; assay: Mouse peritoneal inflammation model (thioglycollate); format: in vivo; settings: 10 mg/kg intraperitoneal single dose, thioglycollate stimulus, peritoneal lavage at 4 and 24 hours
Description: The following example illustrates the ability of a compound useful in the methods of the present invention to reduce neutrophil and monocyte recruitment, as well as to reduce the total number of leukocytes in a mouse peritoneal inflammation model.
A single dose (10 mg/kg in 200 μl) of an anti-inflammatory pyrazolopyrimidine compound of the present invention (compound 30 in Table 1, above) was administered intraperionteally to a group of 6 mice while another group of 6 mice received an intraperitoneal injection of vehicle only. Fifteen minutes later, an inflammatory stimulus (thioglycollate, 200 μl) was administered intraperitoneally to each mouse. Peritoneal lavage was collected at 4 and 24 hours subsequent to stimulus administration.
Inflammatory infiltrate was recovered by injection of 10 ml of Ca++/Mg++ free PBS, massaging, and withdrawal. Total recovered cells were counted on a hemacytometer. The results are presented in FIG. 2 (average+/−SD of 6 mice).
Neutrophils, monocytes, lymphocytes and eosinophils were enumerated by analyzing smears of the peritoneal wash stained with Wright-Geimsa stain. The results are presented in FIG. 3 (average+/−SD of 6 mice).

Structure (SMILES) | Activity [1] | gamma interferon signaling inhibitor classification (IFN-gamma signaling) | T cell activation inhibitor classification (T cell activation) | other results
CC(C)(C)n1nc(Cc2cccc3ccccc23)c2c(N)ncnc21 [Compound 7] | active | interferon gamma signaling inhibitor |  | 
Cc1cc(-c2nn(C(C)(C)C)c3ncnc(N)c23)cc2ccccc12 [Compound 8] | active | interferon gamma signaling inhibitor |  | 
Cc1ccc(-c2nn(C(C)(C)C)c3ncnc(N)c23)c2ccccc12 [Compound 9] | active | interferon gamma signaling inhibitor |  | 
CC(C)(C)n1nc(-c2ccc3c4c(cccc24)CC3)c2c(N)ncnc21 [Compound 11] | active | interferon gamma signaling inhibitor |  | 
CC(C)(C)n1nc(-c2ccc(F)c3ccccc23)c2c(N)ncnc21 [Compound 12] | active | interferon gamma signaling inhibitor |  | 
CC(C)(C)n1nc(-c2cccc(N)c2)c2c(N)ncnc21 [Compound 17] | active |  | T cell activation inhibitor | 
CC(C)(C)n1nc(-c2cccc3ccccc23)c2c(N)ncnc21 [Compound 19] | active | interferon gamma signaling inhibitor |  | 
CC(C)(C)n1nc(Cc2ccccc2Cl)c2c(N)ncnc21 [Compound 30] | active |  |  | monocyte activation inhibitor classification (monocyte activation): monocyte activation inhibitor; monocyte recruitment [2]: reduce; neutrophil recruitment [2]: reduce; total number of leukocytes [2]: reduce
CC(C)(C)n1nc(-c2cccc(O)c2)c2c(N)ncnc21 [Compound 41] | active |  | T cell activation inhibitor | 
Cn1nc(-c2ccc3ccccc3c2)c2c(N)ncnc21 [Compound 48] | active |  | T cell activation inhibitor | 
CC(C)n1nc(-c2cccc(O)c2)c2c(N)ncnc21 [Compound 54] | active |  | T cell activation inhibitor | 
